Results from ChEMBL document CHEMBL6087397, “H2S-releasing oridonin derivatives with improved antitumor activity by inhibiting the PI3K/AKT pathway” (Bioorg Med Chem, 2024).
The source made the active and inactive calls. The calls are words filed in the database; no cut-off is given here.

Columns and labels:
MCF7 [1] = experiment: Induction of apoptosis in human MCF7 cells assessed as increase in cleaved caspase-3 level at 1.25 to 5.0 uM incubated for 48 hrs by Western blotting analysis; type: functional, cell-based; conditions: dose 1.25-5 µM
MCF7 [2] = experiment: Induction of apoptosis in human MCF7 cells assessed as upregulation of Bax/Bcl-2 ratio at 1.25 to 5.0 uM incubated for 48 hrs by Western blotting analysis; type: functional, cell-based; conditions: dose 1.25-5 µM
MCF7 [3] = experiment: Induction of apoptosis in human MCF7 cells assessed as increase in nuclear fragmentation at 2.5 uM incubated for 48 hrs by Hoechst 33342 staining based fluorescence microscopic analysis; type: functional, cell-based
MIA PaCa-2 [4] = experiment: Inhibition of cell invasion in human MIA PaCa-2 cells assessed as decrease in number of invading cells at 0.5 to 1.0 uM incubated for 48 hrs by crystal violet staining based transwell microscopic analysis relative to control; type: functional; conditions: dose 0.5-1 µM
MCF7 [5] = experiment: Induction of apoptosis in human MCF7 cells assessed as increase in Cyt-C level at 1.25 to 5.0 uM incubated for 48 hrs by Western blotting analysis; type: functional, cell-based; conditions: dose 1.25-5 µM
MIA PaCa-2 [6] = experiment: Induction of apoptosis in human MIA PaCa-2 cells assessed as upregulation of cleaved PARP expression at 1.25 to 5.0 uM incubated for 48 hrs by Western blotting analysis; type: functional, cell-based; conditions: dose 1.25-5 µM
HepG2 = experiment: Antiproliferative activity against human HepG2 cells assessed as inhibition of cell proliferation incubated for 48 hrs by CCK-8 assay; type: functional, cell-based; conditions: HepG2, 48 h
MCF7 [7] = experiment: Inhibition of colony formation in human MCF7 cells assessed as reduction in number of colonies at 1.0 to 2.0 uM incubated for […] by crystal violet staining based microscopic analysis; type: functional, cell-based; conditions: dose 1-2 µM
MIA PaCa-2 [8] = experiment: Induction of apoptosis in human MIA PaCa-2 cells assessed as upregulation of cleaved caspase-3 expression at 1.25 to 5.0 uM incubated for 48 hrs by Western blotting analysis; type: functional, cell-based; conditions: dose 1.25-5 µM
A549 = experiment: Antiproliferative activity against human A549 cells assessed as inhibition of cell proliferation incubated for 48 hrs by CCK-8 assay; type: functional, cell-based; conditions: A549, 48 h
MCF7 [9] = experiment: Induction of cell cycle arrest in human MCF7 cells assessed as increase in accumulation of cells at G2/M phase at 5 uM incubated for 48 hrs by PI staining based flow cytometric analysis (reference value: 6.7%); type: functional
MIA PaCa-2 [10] = experiment: Induction of cell cycle arrest in human MIA PaCa-2 cells assessed as increase in accumulation of cells at S phase at 2.5 uM incubated for 48 hrs by PI staining based flow cytometric analysis (reference value: 9.38%); type: functional
MIA PaCa-2 [11] = experiment: Induction of apoptosis in human MIA PaCa-2 cells assessed as upregulation of cleaved caspase-9 expression at 1.25 to 5.0 uM incubated for 48 hrs by Western blotting analysis; type: functional, cell-based; conditions: dose 1.25-5 µM
MIA PaCa-2 [12] = experiment: Induction of apoptosis in human MIA PaCa-2 cells assessed as increase in fluorescence intensity at 2.5 uM incubated for 48 hrs by Hoechst 33342 staining based fluorescence microscopic analysis; type: functional, cell-based
MIA PaCa-2 [13] = experiment: Induction of mitochondrial dysfunction in human MIA PaCa-2 cells assessed as decrease in ATP level incubated for 48 hrs by ATP assay kit; type: functional, cell-based; conditions: dose 2.5-10 µM
[14] = Toxicity in female BALB/c mouse xenografted with mouse 4T1 cells assessed as change in body weight at 10 mg/kg, ip administered every 2 days; type: organism-based; conditions: in vivo, 48 h
[15] = Toxicity in female BALB/c mouse xenografted with mouse 4T1 cells assessed as morphological change in spleen at 10 mg/kg, ip administered every 2 days by H and E staining based analysis; type: organism-based; conditions: in vivo, 48 h
MIA PaCa-2 [16] = experiment: Induction of mitochondrial dysfunction in human MIA PaCa-2 cells assessed as decrease in MMP level at 2.5 to 5.0 uM by measuring green fluorescence incubated for 48 hrs by JC-1 staining based flow cytometric analysis; type: functional, cell-based; conditions: dose 2.5-5 µM
MCF7 [17] = experiment: Induction of mitochondrial apoptosis pathway in human MCF7 cells assessed as downregulation of pro-caspase-3 expression at 1.25 to 5.0 uM incubated for 48 hrs by Western blotting analysis; type: functional, cell-based; conditions: dose 1.25-5 µM
MCF7 [18] = experiment: Induction of cell cycle arrest in human MCF7 cells assessed as increase in accumulation of cells at G2/M phase at 10 uM incubated for 48 hrs by PI staining based flow cytometric analysis (reference value: 6.7%); type: functional
MIA PaCa-2 [19] = experiment: Induction of apoptosis in human MIA PaCa-2 cells assessed as increase in Bax/Bcl-2 ratio at 1.25 to 5.0 uM incubated for 48 hrs by Western blotting analysis; type: functional, cell-based; conditions: dose 1.25-5 µM
MCF7 [20] = experiment: Induction of apoptosis in human MCF7 cells assessed as increase in fluorescence intensity at 2.5 uM incubated for 48 hrs by Hoechst 33342 staining based fluorescence microscopic analysis; type: functional, cell-based
[21] = Toxicity in female BALB/c mouse xenografted with mouse 4T1 cells assessed as morphological change in kidney at 10 mg/kg, ip administered every 2 days by H and E staining based analysis; type: organism-based; conditions: in vivo, 48 h
MCF7 [22] = experiment: Inhibition of cell migration in human MCF7 cells assessed as wider scratch areas incubated for 48 hrs by scratch assay; type: functional, cell-based; conditions: dose 0.5-1 µM
MIA PaCa-2 [23] = experiment: Inhibition of cell migration in human MIA PaCa-2 cells assessed as wider scratch areas at 0.5 to 1.0 uM incubated for 48 hrs by scratch assay; type: functional, cell-based; conditions: dose 0.5-1 µM
MIA PaCa-2 [24] = experiment: Inhibition of colony formation in human MIA PaCa-2 cells assessed as reduction in number of colonies at 0.5 to 1.0 uM incubated for […] by crystal violet staining based microscopic analysis; type: functional, cell-based; conditions: dose 0.5-1 µM
MIA PaCa-2 [25] = experiment: Antiproliferative activity against human MIA PaCa-2 cells assessed as inhibition of cell proliferation incubated for 48 hrs by CCK-8 assay; type: functional, cell-based; conditions: MIA PaCa-2, 48 h
4T1 = experiment: Antitumor activity against mouse 4T1 cells xenografted in female BALB/c mouse assessed as reduction in tumor volume at 10 mg/kg, ip administered every 2 days; type: functional, organism-based
MCF7 [26] = experiment: Antiproliferative activity against human MCF7 cells assessed as inhibition of cell proliferation incubated for 48 hrs by CCK-8 assay; type: functional, cell-based; conditions: MCF7, 48 h
MCF7 [27] = experiment: Induction of apoptosis in human MCF7 cells assessed as early apoptotic cells at 10 uM incubated for 48 hrs by Annexin V-FITC/PI staining based flow cytometric analysis (reference value: 20.2%); type: functional
PANC-1 = experiment: Antiproliferative activity against human PANC-1 cells assessed as inhibition of cell proliferation incubated for 48 hrs by CCK-8 assay; type: functional, cell-based; conditions: PANC-1, 48 h
MIA PaCa-2 [28] = experiment: Induction of cell cycle arrest in human MIA PaCa-2 cells assessed as increase in accumulation of cells at S phase at 5.0 uM incubated for 48 hrs by PI staining based flow cytometric analysis (reference value: 9.38%); type: functional
MCF7 [29] = experiment: Induction of apoptosis in human MCF7 cells assessed as increase in cleaved caspase-9 level at 1.25 to 5.0 uM incubated for 48 hrs by Western blotting analysis; type: functional, cell-based; conditions: dose 1.25-5 µM
MCF7 [30] = experiment: Induction of mitochondrial dysfunction in human MCF7 cells assessed as decrease in MMP level at 2.5 to 5.0 uM by measuring green fluorescence incubated for 48 hrs by JC-1 staining based flow cytometric analysis; type: functional, cell-based; conditions: dose 2.5-5 µM

- IC50 (HepG2): 7.48 µM
- IC50 (A549): 17.8 µM
- IC50 (MIA PaCa-2 [25]): 2.14 µM
- IC50 (MCF7 [26]): 3.43 µM
- IC50 (PANC-1): 17.7 µM
SMILES: C=C1C(=O)[C@]23[C@H](OC(=O)c4ccc(N=C=S)cc4)[C@H]1CC[C@H]2[C@@]12CO[C@]3(O)[C@@H](O)[C@@H]1C(C)(C)CC[C@@H]2O
- Activity (MCF7 [1]): Active
- Activity (MCF7 [2]): Active
- Activity (MCF7 [3]): Active
- inhibition (INH) (MIA PaCa-2 [4]): ~70%
- Activity (MCF7 [5]): Active
- Activity (MIA PaCa-2 [6]): Active
- inhibition (MCF7 [7]): Active
- Activity (MIA PaCa-2 [8]): Active
- Activity (MCF7 [9]): 11.5%
- Activity (MIA PaCa-2 [10]): 36%
- Activity (MIA PaCa-2 [11]): Active
- Activity (MIA PaCa-2 [12]): Active
- Activity (MIA PaCa-2 [13]): Dose-dependent-effect
- Activity [14]: Non-toxic
- Activity [15]: Non-toxic
- Activity (MIA PaCa-2 [16]): Active
- Activity (MCF7 [17]): Active
- Activity (MCF7 [18]): 14%
- Activity (MIA PaCa-2 [19]): Active
- Activity (MCF7 [20]): Active
- Activity [21]: Non-toxic
- inhibition (MCF7 [22]): Dose-dependent-effect
- inhibition (MIA PaCa-2 [23]): Active
- inhibition (MIA PaCa-2 [24]): Active
- Activity (4T1): Active
- Activity (MCF7 [27]): 37%
- Activity (MIA PaCa-2 [28]): 46.9%
- Activity (MCF7 [29]): Active
- Activity (MCF7 [30]): Active
